Data reported in US4847375A, “Antibacterial 1,8-bridged 4-quinoline-3-carboxylic acids” (Bayer Aktiengesellschaft, priority 1985, dated 1989).
Values after ≈ are worked out from the molar mass of the structure shown.

Experiments:
Test in all cases: MIC, agar dilution test
Format in all cases: cell-based
Klebsiella 8085 = conditions: Isosensitest medium, Denley multipoint inoculator
Text: (§1) Agar dilution test (Isosensitest medium); Denley multi-

E. coli T 7 = conditions: Escherichia coli, T7, Isosensitest medium, Denley multipoint inoculator
Text: as §1

E. coli A 261 = conditions: Escherichia coli, A261, Isosensitest medium, Denley multipoint inoculator
Text: as §1

E. coli Neumann = conditions: Escherichia coli, Isosensitest medium, Denley multipoint inoculator
Text: as §1

SMILES: CN1CCN(c2c(F)cc3c(=O)c(C(=O)O)cn4c3c2OC2CCCC24)CC1 (centres unmarked) [Example 3]
- MIC (Klebsiella 8085): 2 µg/mL (≈ 5.16 µM)
- MIC (E. coli T 7): 2 µg/mL (≈ 5.16 µM)
- MIC (E. coli A 261): 2 µg/mL (≈ 5.16 µM)
- MIC (E. coli Neumann): 2 µg/mL (≈ 5.16 µM)

SMILES: CC1(C)COc2c(N3CCNCC3)c(F)cc3c(=O)c(C(=O)O)cn1c23 [Example 7]
- MIC (Klebsiella 8085): 0.25 µg/mL (≈ 0.692 µM)
- MIC (E. coli T 7): 0.5 µg/mL (≈ 1.38 µM)
- MIC (E. coli A 261): 0.125 µg/mL (≈ 0.346 µM)
- MIC (E. coli Neumann): 1 µg/mL (≈ 2.77 µM)
